Columns and labels:
Type in all cases: cell-based
M1 muscarinic receptor = molecular target: T1, M1 muscarinic receptor (Homo sapiens, UniProt P11229); test: Functional mobilization of intracellular calcium (FLIPR), M1-CHO cells; details: for Emax: 100% efficacy = maximum response obtained with the Carbachol control; for M1 Activity: M1-CHO cells, calcium mobilization (FLIPR)
T1 construct: expressed in transfected cells; host or cells: CHO (M1-CHO)
T1 sequence (P11229 1-460): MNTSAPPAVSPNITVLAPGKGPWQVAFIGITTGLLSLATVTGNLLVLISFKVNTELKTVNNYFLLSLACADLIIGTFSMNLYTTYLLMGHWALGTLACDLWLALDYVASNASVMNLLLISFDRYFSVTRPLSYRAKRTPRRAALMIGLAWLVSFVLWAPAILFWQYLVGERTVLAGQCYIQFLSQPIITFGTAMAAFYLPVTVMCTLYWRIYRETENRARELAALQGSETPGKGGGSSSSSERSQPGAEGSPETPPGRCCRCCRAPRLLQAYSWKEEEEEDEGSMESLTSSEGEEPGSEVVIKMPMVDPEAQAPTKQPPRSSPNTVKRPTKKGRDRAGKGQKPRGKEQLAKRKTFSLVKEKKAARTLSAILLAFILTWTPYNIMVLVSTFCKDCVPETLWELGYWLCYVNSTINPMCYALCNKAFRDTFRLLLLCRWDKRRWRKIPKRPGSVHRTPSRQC
Method in brief: (§1)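 CHO cells expressing human M1–M4 receptors loaded with Fluo-3 AM or Calcium 3 dye (1 mM probenecid, pH 7.4); 0.5% DMSO final. Agonist mode: compound added directly; antagonist mode: 15 min pre-incubation or co-application, then carbachol at EC80. Fluorescence read 60 s on FLIPR; efficacy relative to carbachol maximum.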

M2 muscarinic receptor = molecular target: T2, M2 muscarinic receptor (Homo sapiens, UniProt P08172); test: Functional mobilization of intracellular calcium (FLIPR), M2-CHO cells; details: for Emax: 100% efficacy = maximum response obtained with the Carbachol control; for M2 Activity: M2-CHO cells, calcium mobilization (FLIPR)
T2 construct: expressed in transfected cells; host or cells: CHO (M2-CHO)
T2 sequence (P08172 1-466): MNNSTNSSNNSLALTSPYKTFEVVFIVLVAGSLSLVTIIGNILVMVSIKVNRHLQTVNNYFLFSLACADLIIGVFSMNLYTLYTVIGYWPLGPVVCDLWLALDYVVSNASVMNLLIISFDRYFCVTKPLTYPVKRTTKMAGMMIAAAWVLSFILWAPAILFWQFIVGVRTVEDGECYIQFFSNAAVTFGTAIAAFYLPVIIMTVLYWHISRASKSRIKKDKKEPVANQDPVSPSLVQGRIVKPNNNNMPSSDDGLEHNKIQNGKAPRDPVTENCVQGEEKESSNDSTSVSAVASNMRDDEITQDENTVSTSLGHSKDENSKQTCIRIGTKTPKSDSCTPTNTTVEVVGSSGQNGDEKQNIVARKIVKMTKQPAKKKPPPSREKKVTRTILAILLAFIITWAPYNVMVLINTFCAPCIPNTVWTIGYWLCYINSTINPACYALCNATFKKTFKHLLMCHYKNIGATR
Method in brief: as §1

M3 muscarinic receptor = molecular target: T3, M3 muscarinic receptor (Homo sapiens, UniProt P20309); test: Functional mobilization of intracellular calcium (FLIPR), M3-CHO cells; details: for Emax: 100% efficacy = maximum response obtained with the Carbachol control; for M3 Activity: M3-CHO cells, calcium mobilization (FLIPR)
T3 construct: expressed in transfected cells; host or cells: CHO (M3-CHO)
T3 sequence (P20309 whole entry): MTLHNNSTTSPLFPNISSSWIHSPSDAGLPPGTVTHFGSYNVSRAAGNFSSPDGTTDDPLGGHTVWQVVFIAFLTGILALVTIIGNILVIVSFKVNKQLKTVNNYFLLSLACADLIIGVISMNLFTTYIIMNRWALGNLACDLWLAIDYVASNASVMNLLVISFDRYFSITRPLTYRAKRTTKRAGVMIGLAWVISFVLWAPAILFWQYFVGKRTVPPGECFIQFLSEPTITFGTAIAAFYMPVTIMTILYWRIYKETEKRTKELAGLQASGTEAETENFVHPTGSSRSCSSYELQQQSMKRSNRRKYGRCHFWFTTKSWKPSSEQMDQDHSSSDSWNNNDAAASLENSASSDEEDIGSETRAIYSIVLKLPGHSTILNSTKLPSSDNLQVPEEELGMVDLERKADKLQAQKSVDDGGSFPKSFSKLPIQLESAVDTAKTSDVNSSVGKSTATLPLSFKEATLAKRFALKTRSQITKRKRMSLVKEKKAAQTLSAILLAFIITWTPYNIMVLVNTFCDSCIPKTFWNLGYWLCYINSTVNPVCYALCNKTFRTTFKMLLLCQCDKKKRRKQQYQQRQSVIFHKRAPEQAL
Method in brief: as §1

M4 muscarinic receptor = molecular target: T4, M4 muscarinic receptor (Homo sapiens, UniProt P08173); test: Functional mobilization of intracellular calcium (FLIPR), M4-CHO cells; details: for Emax: 100% efficacy = maximum response obtained with the Carbachol control; for M4 Activity: M4-CHO cells, calcium mobilization (FLIPR)
T4 construct: expressed in transfected cells; host or cells: CHO (M4-CHO)
T4 sequence (P08173 1-479): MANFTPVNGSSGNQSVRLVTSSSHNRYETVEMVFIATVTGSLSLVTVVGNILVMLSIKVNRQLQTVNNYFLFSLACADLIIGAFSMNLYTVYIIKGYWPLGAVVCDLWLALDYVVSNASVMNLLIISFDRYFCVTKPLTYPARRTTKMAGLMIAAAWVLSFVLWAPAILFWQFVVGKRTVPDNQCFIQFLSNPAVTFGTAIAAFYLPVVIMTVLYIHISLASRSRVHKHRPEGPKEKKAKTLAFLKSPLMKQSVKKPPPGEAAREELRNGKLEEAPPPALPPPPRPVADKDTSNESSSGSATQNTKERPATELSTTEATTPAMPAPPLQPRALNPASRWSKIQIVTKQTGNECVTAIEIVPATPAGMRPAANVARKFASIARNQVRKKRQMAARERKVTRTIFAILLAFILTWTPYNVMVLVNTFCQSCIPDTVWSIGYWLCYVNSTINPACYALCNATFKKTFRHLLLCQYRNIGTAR
Method in brief: as §1

| Structure (SMILES) | Emax (M1 muscarinic receptor) [%] | M1 Activity (M1 muscarinic receptor) | Emax (M2 muscarinic receptor) [%] | M2 Activity (M2 muscarinic receptor) | Emax (M3 muscarinic receptor) [%] | M3 Activity (M3 muscarinic receptor) | Emax (M4 muscarinic receptor) [%] | M4 Activity (M4 muscarinic receptor) |
| --- | --- | --- | --- | --- | --- | --- | --- | --- |
| CNC(=O)c1ccc(-c2ccc(OC)c(C3CCN(C4CCCCC4)CC3)c2)cc1 [Compound 36] | < 25 | + (activity was measured to be greater than 5.0 μM) | < 25 | + (activity was measured to be greater than 5.0 μM) | < 25 | + (activity was measured to be greater than 5.0 μM) | 25 to 100 | ++ (activity was measured to be from 1.0 μM to 5.0 μM) |
| COc1ccccc1C1CC2CCC(C1)N2C1CCOCC1 (centres unmarked) [Compound 37] | < 25 | + (activity was measured to be greater than 5.0 μM) | < 25 | + (activity was measured to be greater than 5.0 μM) | < 25 | + (activity was measured to be greater than 5.0 μM) | < 25 | + (activity was measured to be greater than 5.0 μM) |
| COc1ccccc1C1CCN(C2CCC[C@@H](C)C2)CC1 (some centres unmarked) [Compound 38] | < 25 | + (activity was measured to be greater than 5.0 μM) | < 25 | + (activity was measured to be greater than 5.0 μM) | < 25 | + (activity was measured to be greater than 5.0 μM) | 25 to 100 | +++ (activity was measured to be less than 1.0 μM) |
| CCOC(=O)N1CCC(CN2CCC(c3cc(F)ccc3OC)CC2)CC1 [Compound 39] | 25 to 100 | +++ (activity was measured to be less than 1.0 μM) | 25 to 100 | +++ (activity was measured to be less than 1.0 μM) | < 25 | + (activity was measured to be greater than 5.0 μM) | 25 to 100 | +++ (activity was measured to be less than 1.0 μM) |
| COc1ccc(F)cc1C1(F)CCN(C2CC3CCC(C3)C2)CC1 (centres unmarked) [Compound 40] | 25 to 100 | ++ (activity was measured to be from 1.0 μM to 5.0 μM) | 25 to 100 | + (activity was measured to be greater than 5.0 μM) | < 25 | + (activity was measured to be greater than 5.0 μM) | 25 to 100 | +++ (activity was measured to be less than 1.0 μM) |
| OC1(c2ccc(F)cc2F)CCN(C2C[C@H]3CC[C@H]2C3)CC1 (some centres unmarked) [Compound 41] | < 25 | + (activity was measured to be greater than 5.0 μM) | < 25 | + (activity was measured to be greater than 5.0 μM) | < 25 | + (activity was measured to be greater than 5.0 μM) | < 25 | + (activity was measured to be greater than 5.0 μM) |
| CCOC(=O)C(C)(C)Oc1ccccc1C1CCN([C@H]2C[C@H]3CC[C@H]2C3)CC1 [Compound 42] | < 25 | + (activity was measured to be greater than 5.0 μM) | < 25 | + (activity was measured to be greater than 5.0 μM) | < 25 | + (activity was measured to be greater than 5.0 μM) | < 25 | ++ (activity was measured to be from 1.0 μM to 5.0 μM) |
| CCOC(=O)N1CCC(N2CCC(c3cc(-c4ccc(S(C)(=O)=O)cc4)ccc3OC)CC2)CC1 [Compound 43] | > 100 | +++ (activity was measured to be less than 1.0 μM) | 25 to 100 | +++ (activity was measured to be less than 1.0 μM) | 25 to 100 | + (activity was measured to be greater than 5.0 μM) | 25 to 100 | +++ (activity was measured to be less than 1.0 μM) |
| COc1ccc(Cl)cc1C1(F)CCN(C[C@@H]2C[C@H]3C=C[C@H]2C3)CC1 [Compound 44] | 25 to 100 | + (activity was measured to be greater than 5.0 μM) | 25 to 100 | + (activity was measured to be greater than 5.0 μM) | < 25 | + (activity was measured to be greater than 5.0 μM) | 25 to 100 | ++ (activity was measured to be from 1.0 μM to 5.0 μM) |
| Cc1ccc(-c2ccccc2C2CCN([C@H]3C[C@H]4CC[C@H]3C4)CC2)cc1 [Compound 45] | < 25 | + (activity was measured to be greater than 5.0 μM) | < 25 | + (activity was measured to be greater than 5.0 μM) | < 25 | + (activity was measured to be greater than 5.0 μM) | 25 to 100 | + (activity was measured to be greater than 5.0 μM) |
| Cc1ccccc1C1CCN(CC2CC3C=CC2C3)CC1 (centres unmarked) [Compound 46] | 25 to 100 | ++ (activity was measured to be from 1.0 μM to 5.0 μM) | 25 to 100 | + (activity was measured to be greater than 5.0 μM) | – | + (activity was measured to be greater than 5.0 μM) | 25 to 100 | +++ (activity was measured to be less than 1.0 μM) |
| CCCOc1ccccc1C1CCN([C@H]2C[C@H]3CC[C@H]2C3)CC1 [Compound 47] | 25 to 100 | + (activity was measured to be greater than 5.0 μM) | < 25 | + (activity was measured to be greater than 5.0 μM) | < 25 | + (activity was measured to be greater than 5.0 μM) | 25 to 100 | ++ (activity was measured to be from 1.0 μM to 5.0 μM) |
| COc1ccc(-c2ccc(F)cc2F)cc1C1CCN([C@H]2C[C@H]3CC[C@H]2C3)CC1 [Compound 48] | 25 to 100 | + (activity was measured to be greater than 5.0 μM) | < 25 | + (activity was measured to be greater than 5.0 μM) | < 25 | + (activity was measured to be greater than 5.0 μM) | 25 to 100 | + (activity was measured to be greater than 5.0 μM) |
| COc1cc(F)c(F)c(C2CCN(C3CCOCC3)CC2)c1 [Compound 49] | 25 to 100 | + (activity was measured to be greater than 5.0 μM) | < 25 | + (activity was measured to be greater than 5.0 μM) | < 25 | + (activity was measured to be greater than 5.0 μM) | 25 to 100 | +++ (activity was measured to be less than 1.0 μM) |
| COc1ccc(C(=O)c2ccccc2)cc1C1CCN([C@H]2C[C@H]3CC[C@H]2C3)CC1 [Compound 50] | 25 to 100 | + (activity was measured to be greater than 5.0 μM) | < 25 | + (activity was measured to be greater than 5.0 μM) | < 25 | + (activity was measured to be greater than 5.0 μM) | 25 to 100 | ++ (activity was measured to be from 1.0 μM to 5.0 μM) |
